Measurements as given in patent publication US10220022B2, “Compositions and methods employing Wolbachia FtsZ as a target for Albendazole sulfone” (The Regents of the University of California, priority 2011, dated 2019).

Experiments:
Wolbachia = Wolbachia titer in Drosophila oogenesis after drug feeding; type: in vivo; conditions: 24-hour treatment, counts from single oocyte focal planes; DMSO control 225+/−18
Text: (§1) Drug feeding conditions: Fly feeding we done as previously described.
(§2) Staining: Drosophila Ovary staining was done with PI, anti-tubuli. Drosophila Embryo staining was done with anti-FtsZ. Brugia microfilarial staining was done with PI, anti-tubulin, and anti-FtsZ.
As Albendazole is already a widely used, FDA-approved drug, we proceeded to test it and the primary metabolites Albendazole sulfoxide and Albendazole sulfone for anti-Wolbachia effects in Drosophila oogenesis. This system provides a high-precision method for assessing Wolbachia titer in a well-characterized developmental context.

[1] = test system: oocyte microtubule cytoskeleton; test: Posterior Wolbachia localization in treated oocytes; type: in vivo; conditions: treated Drosophila oocytes; DMSO controls 95%
Text: as §1, §2
(§3) To address whether Albendazole sulfone acts on Wolbachia by disrupting the oocyte microtubule cytoskeleton, a combination of approaches was used. It has previously been shown that Wolbachia concentrate at the oocyte posterior cortex in a microtubule-dependent manner. […] We also examined the cytoskeleton directly by immunolabeling the microtubules.

[2] = test system: oocyte microtubule cytoskeleton; test: Immunolabeling of oocyte microtubules; type: in vivo, Drosophila; conditions: immunolabeling of the microtubules, stage 10A oocytes
Text: as §2, §3

B. malayi microtubules = test: Microtubule staining of treated Brugia malayi microfilariae; conditions: compound fed to Brugia malayi microfilariae
Text: as §2
(§4) To investigate whether Albendazole sulfone disrupts Walbachia FtsZ, we fed this compound to Brugia malayi microfilariae, which carry Wolbachia as an essential endosymbiont. […] This is consistent with the predicted benzimidazole susceptibility of B. malayi beta tubulin (FIG. 5).
(§5) In view of the above the inventors posed the questions: By what mechanism does Albendazole sulfone act against Wolbachia FtsZ? And is FtsZ disruption a consequence of host microtubule disassembly, or due to a separate effect on FtsZ by Albendazole sulfone? […] To further test whether Wolbachia FtsZ relies on host microtubules, we also treated Brugia with the microtubule-disrupting drug Colchicine.

Wolbachia FtsZ = test: FtsZ immunostaining in treated Brugia malayi microfilariae; conditions: compound fed to Brugia malayi microfilariae
Text: as §2, §4, §5

beta-tubulin = conditions: relative to Albendazole sulfoxide; cited from earlier work
[3] = test system: Wolbachia-infected JW18 cells; test: High-throughput screen for compounds reducing Wolbachia infection of JW18 cells; type: cell-based, Drosophila; conditions: 100 uM per well, 5-day incubation at 25 C, 3 replicates
Description: Cells were plated in 384-well, clear bottom plates (Griener Bio-one) pre-coated with 0.5 mg/mL Concanavalin A. JW18 cells were added to 22 columns, and JW18TET cells were added to the remaining 2 columns at a dilution of 6500 cells per well. After the cells adhered to the plates, compounds were transferred into 20 columns of JW18 cells in the center of the plate using a Janus MDT pin tool. The final concentration of compound was 100 uM per well. All treatments were distributed into 3 plate replicates.
After a 5-day incubation with the compounds at 25 C, the cells were prepared for imaging. Cells were fixed for 20 minutes in 4% formaldehyde and rinsed with PBS using an automated BioTek liquid handler. All staining solutions were administered using a Multidrop robot, with extensive rinsing between treatments. The primary antibody, mouse anti histone (MAB052, Millipore), was used at 1:1250 in PBS/0.1% Triton. Secondary antibody goat anti-mouse Alexa 594 (Invitrogen) was used at 1:1250. DAPI was used as a saturated solution, diluted to a final concentration of 1:40. After staining, PBS+Azide was added to all wells of the plates.
Stained treatment plates were imaged using the MetaExpress Micro system (Molecular Devices, Sunnyvale Calif.). 10 images were acquired per well at 40× magnification. These images were next analyzed using customized journaling software provided by Molecular Devices. The journal first masks any areas where clumps of cells are detected, based upon intensity of the Jupiter-GFP. The boundaries of the remaining cells and their nuclei are recognized based upon the Jupiter-GFP and anti-histone stains. A mask is applied to the nuclei, to obscure the hi stone and DAPI signal from those areas. A threshold for DAPI fluorescence detection is set to detect as much Wolbachia as possible in JW18 control cells while minimizing detection of background DAPI signal in JW18TET control cells. Then this cytoplasmic DAPI level, read to indicate Wolbachia, is scored in the cytoplasm of individual cells to determine whether each cell is infected with Wolbachia. The cutoff value distinguishing “infected” from “uninfected” cells is 4000-5000 fluorescence units per cell.
A spreadsheet from the journal indicates the quantity of Wolbachia-infected cells versus total cells measured in each well. A Z′ factor is calculated for each plate based upon the average frequency of cell infection for JW18 and JW18TET control cells. […] An initial hit range is calculated to lie between the JW18 average infection frequency−3 standard deviations, and the average JW18TET infection frequency+3 standard deviations. To further refine identification of hits, we also calculated an average infection frequency for all JW18 cells on the plate (treated or not), as most treatment wells are expected to be indistinguishable from untreated controls. Wells are that lie within 3 standard deviations of the mean are exluded, and remaining wells are classified as hits within that replicate. Hit wells that are identified in at least 2 out of 3 replicates are considered to be finalized hits.
In this screen, 3081 compounds froth the National Cancer Institute were used. […] Cells were incubated for 5 days with each compound, then fixed, stained, and imaged using automated robotics (FIG. 2). Customized analysis software was used to compare the images from compound-treated wells to the control cells to assay for significant changes in the quantity of Wolbachia-infected cells. All treatment plates were run in triplicate.

Streptococcus pyrogenes = conditions: prior screen; cited from earlier work
M. tuberculosis FtsZ = M. tuberculosis FtsZ (Mycobacterium tuberculosis, UniProt P9WN95); conditions: cited from earlier work
Chain of M. tuberculosis FtsZ (P9WN95 whole entry): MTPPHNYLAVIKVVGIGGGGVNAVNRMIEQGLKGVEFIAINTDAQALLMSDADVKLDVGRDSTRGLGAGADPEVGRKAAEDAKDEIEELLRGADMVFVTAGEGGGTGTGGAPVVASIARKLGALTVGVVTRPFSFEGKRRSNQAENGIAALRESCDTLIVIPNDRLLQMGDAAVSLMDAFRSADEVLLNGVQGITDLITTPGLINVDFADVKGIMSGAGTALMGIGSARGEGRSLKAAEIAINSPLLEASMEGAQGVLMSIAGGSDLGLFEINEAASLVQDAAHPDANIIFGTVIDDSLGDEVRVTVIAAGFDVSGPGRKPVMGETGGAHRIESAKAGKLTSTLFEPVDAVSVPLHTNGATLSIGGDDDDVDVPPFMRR

Structure (SMILES): CCCS(=O)(=O)c1ccc2nc(NC(=O)OC)[nH]c2c1 [Albendazole sulfone]
- Wolbachia per oocyte (Wolbachia): 150+/−13 Wolbachia per oocyte
- oocytes with posterior Wolbachia localization [1]: 93%
- oocyte microtubule structure [2]: fibrillar microtubule arrays
- effect on Brugia host microtubules (B. malayi microtubules): widespread disruption of B. malayi microtubules
- effect on Wolbachia FtsZ (Wolbachia FtsZ): FtsZ was also disrupted in most
- potency as disrupter of beta-tubulin (beta-tubulin): far less potent disrupter of beta-tubulin than Albendazole sulfoxide

Structure (SMILES): CC[C@@]1(O)C[C@H](O[C@H]2C[C@H](N(C)C)[C@H](O[C@H]3C[C@@H]4O[C@H]5CC(=O)[C@H](C)O[C@H]5O[C@@H]4[C@H](C)O3)[C@H](C)O2)c2c(cc3c(c2O)C(=O)c2c(O)ccc(O)c2C3=O)[C@H]1C(=O)OC [Cinerubin B]
- reduction of Wolbachia-infection frequency (screen hit) [3]: hits

Structure (SMILES): CCC[S+]([O-])c1ccc2[nH]c(NC(=O)OC)nc2c1 (stereo not drawn) [Albendazole sulfoxide]
- Wolbachia per oocyte (Wolbachia): 255+/−27 Wolbachia per oocyte

Structure (SMILES): CCN1/C(=C/C(C)=C/c2sc3ccccc3[n+]2CC)Sc2ccccc21.[I-] [NSC96932]
- reduction of Wolbachia-infection frequency (screen hit) [3]: hits
- antibacterial activity (Streptococcus pyrogenes): exert antibacterial activity

Structure (SMILES): CN1CCN(c2ccc([N+](=O)[O-])c3no[n+]([O-])c23)CC1 [NSC207895]
- reduction of Wolbachia-infection frequency (screen hit) [3]: hits

Structure (SMILES): O=C(CSc1nc2ccccc2s1)c1sc2sc3ccccc3[n+]2c1O [NSC339601]
- reduction of Wolbachia-infection frequency (screen hit) [3]: anti-Wolbachia

Structure (SMILES): COc1cc2c(c(OC)c1OC)-c1ccc(OC)c(=O)cc1[C@@H](NC(C)=O)CC2 [Colchicine, reference compound]
- oocytes with posterior Wolbachia localization [1]: 21%
- oocyte microtubule structure [2]: devoid of filamentous structure
- effect on Brugia host microtubules (B. malayi microtubules): severely disrupted host microtubules
- effect on Wolbachia FtsZ (Wolbachia FtsZ): FtsZ remained concentrated near Wolbachia DNA

Structure (SMILES): C[C@H]1c2cccc(O)c2C(=O)C2=C(O)[C@]3(O)C(=O)C(C(N)=O)=C(O)[C@@H](N(C)C)[C@@H]3[C@@H](O)[C@@H]21 [Doxycycline]
- Wolbachia per oocyte (Wolbachia): 126+/−11 Wolbachia per oocyte

Structure (SMILES): COC1=C(C)C(=O)C2=C(C1=O)[C@H](COC(N)=O)[C@@]1(O)[C@@H]3[C@H](CN21)N3C (stereo partly drawn) [Mitomycin B]
- reduction of Wolbachia-infection frequency (screen hit) [3]: hits

Structure (SMILES): O=[N+]([O-])/C=C/c1cc2ccccc2[nH]1 [NSC150982]
- reduction of Wolbachia-infection frequency (screen hit) [3]: anti-Wolbachia

Structure (SMILES): CCCSc1ccc2nc(NC(=O)OC)[nH]c2c1 [Albendazole]
- Wolbachia per oocyte (Wolbachia): 194+/−20 Wolbachia per oocyte
- effect on M. tuberculosis FtsZ (M. tuberculosis FtsZ): unaffected
